From patent US20200345747A1, “USE OF […] THE TREATMENT OF HEMOLYTIC UREMIC SYNDROME” (priority 2017, published 2020)
Structures can show the parent of a compound that is named as a salt.

Assays:
dopamine receptor D1 = dopamine receptor D1 (Homo sapiens, UniProt P21728); details: cited from earlier work
D2 = D2 (Homo sapiens, UniProt P14416); details: cited from earlier work
alpha1 = details: cited from earlier work
α2 adrenergic receptors = details: cited from earlier work
muscarinic receptors = details: cited from earlier work
[1] = off-label, doses 10 times lower than the standard dosage; cited from earlier work
[2] = Initial treatment of patients with atypical HUS (HUSa) with Fenoldopam; type: in vivo, human
[3] = human, in vivo
5HT1 = details: cited from earlier work
5HT2 = details: cited from earlier work

Sequence of D2 (P14416 whole entry): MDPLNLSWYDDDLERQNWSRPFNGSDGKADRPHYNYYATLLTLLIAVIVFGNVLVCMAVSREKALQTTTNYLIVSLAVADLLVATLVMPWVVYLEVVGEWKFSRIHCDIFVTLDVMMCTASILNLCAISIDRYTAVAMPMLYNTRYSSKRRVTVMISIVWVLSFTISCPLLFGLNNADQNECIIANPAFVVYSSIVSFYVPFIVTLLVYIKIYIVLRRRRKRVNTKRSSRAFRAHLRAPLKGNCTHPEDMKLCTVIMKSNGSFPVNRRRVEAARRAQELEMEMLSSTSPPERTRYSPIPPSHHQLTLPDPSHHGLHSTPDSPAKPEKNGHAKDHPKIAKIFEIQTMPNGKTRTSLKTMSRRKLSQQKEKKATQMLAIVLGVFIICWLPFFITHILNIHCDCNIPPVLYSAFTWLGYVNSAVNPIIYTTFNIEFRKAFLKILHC
Sequence of dopamine receptor D1 (P21728 whole entry, species assumed): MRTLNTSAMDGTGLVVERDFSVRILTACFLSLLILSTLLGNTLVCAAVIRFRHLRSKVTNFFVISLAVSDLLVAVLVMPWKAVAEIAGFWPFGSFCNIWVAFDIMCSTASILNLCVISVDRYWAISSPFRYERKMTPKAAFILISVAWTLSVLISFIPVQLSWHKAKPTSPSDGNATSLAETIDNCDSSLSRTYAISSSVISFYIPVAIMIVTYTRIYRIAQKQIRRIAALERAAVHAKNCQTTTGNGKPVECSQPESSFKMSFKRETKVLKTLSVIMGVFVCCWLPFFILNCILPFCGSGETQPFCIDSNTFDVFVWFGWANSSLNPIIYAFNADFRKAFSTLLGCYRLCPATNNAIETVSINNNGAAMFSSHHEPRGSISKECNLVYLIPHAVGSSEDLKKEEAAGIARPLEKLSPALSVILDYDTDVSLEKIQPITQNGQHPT

## Oc1ccc(C2CNCCc3c2cc(O)c(O)c3Cl)cc1 (stereo not shown) [Fenoldopam, Fenoldopam mesylate]
Dopamine receptor D1
  activity at dopamine receptor D1: partial agonist
D2
  affinity for D2 receptors: does not have any affinity
alpha1
  affinity for alpha1 receptors: does not have any affinity
α2 adrenergic receptors
  affinity to α2 adrenergic receptors: weak affinity
Muscarinic receptors
  affinity for muscarinic receptors: does not have any affinity
[1]
  efficacy in acute renal failure: contrasting efficacy results
  side effects in acute renal failure use: without the observation of any side effects
[2]; three cases of HUSa initially treated, before anti-CS antibody
  natural course of the disease: less aggressive
[2]; three cases of HUSa, pretreated before anti-CS antibody
  overall outcome after subsequent specific treatment: complete relief without permanent injuries
[3]
  levels of creatininemia versus control groups: lower (compared with group 1) or equivalent (with group 2)
  mean days in dialysis: 0.3 (CI: 0-1.1) days
  neurological effects during the acute phase: None
  permanent kidney or other damage: None
  preservation of kidney function (subjects treated): 10 of the 12
  reduction of the real resistive index, "on" versus "off" therapy: −10.8%
  side effects attributable to treatment: none
  subjects needing dialytic support during the acute phase of the disease: 17%
5HT1
  affinity for 5HT1 receptors: does not have any affinity
5HT2
  affinity for 5HT2 receptors: does not have any affinity
